In patent US20110269699A1, “CANCER THERAPY” (priority 2008, published 2011):
Where “and” joins values, the source holds several entries; their conditions need not be identical. Equal entries are not always repeated.

What was measured:
[1] = test system: 226Eμ-myc/Bcl-2 lymphomas; assay: Cell cycle analysis of Eμ-myc/Bcl-2 cells treated with HDACi; format: cell-based, mouse; conditions: 226/Bcl-2
Procedure: (§1) Next, the cell cycle profiles of Eμ-myc/Bcl-2 lymphomas treated with oxamflatin and romidepsin over 3 days were assessed.
(§2) […] Viability of cells as measured by trypan blue exclusion assay, propidium iodide uptake, Annexin V staining, cell cycle analysis, or tetramethylrhodamine ethyl ester staining were done as described (Lindemann et al., Proc. Nat. Acad. Sci. USA 104:8071-8078, 2007).

[2] = test system: 4242Eμ-myc/Bcl-2 lymphomas; assay: as above; format: cell-based, mouse; conditions: 4242/Bcl-2
Procedure: as §1, §2

Eμ-myc lymphomas = assay: In vitro cell death analysis (propidium iodide staining, loss of MOMP); format: cell-based, mouse
Procedure: (§3) Three different primary Eμ-myc lymphomas overexpressing Bcl-2 and control vector-transduced Eμ-myc cells were tested for sensitivity to the histone deacetylase inhibitors (HDACi) oxamflatin and romidepsin.
(§4) The primary function of prosurvival Bcl-2 proteins is to inhibit the activity of Bak and Bax proteins and thereby protect the mitochondrial membrane from damage (Cory et al., Nat. Rev. Cancer 2:647-656, 2002). To determine if the induction of apoptosis mediated by romidepsin in 4242Eμ-myc/Bcl-2 and 229Eμ-myc/Bcl-2 lymphomas was via perturbation of the mitochondrial membrane or through some other mechanism, HDACi-induced mitochondrial outer membrane permeabilization (MOMP) was quantitated by staining with tetramethylrhodamine ethyl ester (Molecular Probes).
as §2

Eμ-myc/Bcl-2 lymphomas = assay: as above; format: cell-based, mouse; conditions: 24-h dose-response assay; Bcl-2 overexpressing
Procedure: as §3, §4, §2

[3] = test system: 229Eμ-myc/Bcl-2 lymphomas; assay: In vitro cell death analysis, time course; format: cell-based, mouse
Text: as §4, §1
(§5) Eμ-myc lymphoma cells (5×10^5/mL) were incubated in the presence of the indicated compounds for 20 h in 1 mL cell culture medium in 24-well plates (Greiner Bio-One). Viability of cells as measured by trypan blue exclusion assay, propidium iodide uptake, Annexin V staining, cell cycle analysis, or tetramethylrhodamine ethyl ester staining were done as described (Lindemann et al., Proc. Nat. Acad. Sci. USA 104:8071-8078, 2007).

4242Eμ-myc lymphomas = assay: In vitro cell death analysis (parental control of the Bcl-XL experiment); format: cell-based, mouse
Procedure: (§6) To determine if increased expression of Bcl-XL could confer resistance to romidepsin, 4242Eμ-myc/Bcl-XL lymphomas were produced and tested for sensitivity to HDACi.
as §5

[4] = test system: 4242Eμ-myc/Bcl-XL lymphomas; assay: In vitro cell death analysis of Bcl-XL overexpressing lymphomas; format: cell-based, mouse
Text: as §6, §2

[5] = test system: acetylated histones H3 and H4; assay: Western blot analysis of histone acetylation status; format: cell-based, mouse; conditions: for histone acetylation: 3.0 nmol/L, 2, 8, 24 h
Procedure: Eμ-myc lymphoma cells were lysed in lysis buffer [0.15 mol/L NaCl, 10 mmol/L Tris-HCl (pH 7.4), 5 μmol/L EDTA, 1% Triton X-100] supplemented with protease inhibitors (leupeptin, pepstatin, and phenylmethylsulfonyl fluoride; Sigma-Aldrich) as described previously (Lindemann et al., Proc. Nat. Acad. Sci. USA 104:8071-8078, 2007). Proteins (30-50 μg) were separated on 10% or 15% SDS polyacrylamide gels electroblotted onto Immobilon-P […] membranes (Millipore). Membranes were incubated with the following antibodies: anti-mouse Bcl-2 (BD PharMingen), anti-mouse Bcl-XL (BD PharMingen), anti-mouse Bcl-w (Chemicon Australia), anti-mouse Mcl-1 (Rockland), anti-mouse A1 (Sapphire Biosciences), anti-Flag tag (Sigma-Aldrich), anti-acetylated histone H3 and antiacetylated histone H4 (Upstate Biosystems), anti-β actin (Sigma-Aldrich), and anti-tubulin (Sigma-Aldrich) overnight at 4° C. followed by subsequent incubation with horseradish peroxidase-conjugated secondary antibodies (DAKO) Immunoreactive bands were visualized by enhanced chemiluminescence (Amersham).

[6] = Maximum tolerated dose in lymphoma-bearing mice; conditions: i.v. once every 4 days for a total of four injections
Procedure: For in vivo apoptosis assays, C57BL/6 mice were injected with Eμ-myc lymphomas (5×10^5 cells per animal) and after 10 to 15 days on which lymph nodes became well-palpable romidepsin (5.6 mg/kg) was administered i.v. After the indicated time points, mice were sacrificed and cells were harvested from brachial lymph nodes for fluorescence-activated cell sorting-based assays to measure apoptotic signaling (Lindemann et al., Proc. Nat. Acad. Sci. USA 104:8071-8078, 2007). To assess therapeutic efficacy of romidepsin, C57BL/6 mice were injected with Eμ-myc lymphomas of the indicated genotypes i.v. (5×10^5 cells per animal). Peripheral WBC counts were then monitored until they exceeded 13×10^3/μL (Sysmex Hematology Analyzer K-1000) and romidepsin was administered at 5.6 mg/kg i.v. once every 4 days for a total of four injections. […] Mice in the control cohort received the corresponding amount of vehicle. Cohorts consisted of 8 to 11 mice each, 2 to 3 independently derived lymphomas per genotype. Peripheral WBC counts and body weights were recorded weekly. On signs of major distress or when lymphomas were relapsing as indicated by enlarged brachioaxial lymph nodes, mice were euthanized and a necropsy was done. For analysis of therapeutic efficacy, tumor-induced mortality “events” were recorded. […]

[7] = increasing concentrations over 24 h

Substance: (1S,4S,10S,16E,21R)-7-[(2Z)-ethylidene]-4,21-diisopropyl-2-oxa-12,13-dithia-5,8,20,23-tetraazabicyclo[8.7.6]tricos-16-ene-3,6,9,19,22-pentanone [Romidepsin]
- % G1 ([1]; 24 hr): 48.6%
- % G2/M ([1]; 24 hr): 26.6%
- % S phase ([1]; 24 hr): 16.4%
- % subG1 ([1]; 24 hr): 3.7%
- % G1 ([1]; 48 hr): 52.3%
- % G2/M ([1]; 48 hr): 27.1%
- % S phase ([1]; 48 hr): 13.5%
- % subG1 ([1]; 48 hr): 3.7%
- % G1 ([1]; 72 hr): 78.3%
- % G2/M ([1]; 72 hr): 8.7%
- % S phase ([1]; 72 hr): 2.5%
- % subG1 ([1]; 72 hr): 7.8%
- % G1 ([2]; 24 hr): 66.3%
- % G2/M ([2]; 24 hr): 11.4%
- % S phase ([2]; 24 hr): 2.1%
- % subG1 ([2]; 24 hr): 19.3%
- % G1 ([2]; 48 hr): 53.2%
- % G2/M ([2]; 48 hr): 8.5%
- % S phase ([2]; 48 hr): 4.6%
- % subG1 ([2]; 48 hr): 27.2%
- % G1 ([2]; 72 hr): 34.8%
- % G2/M ([2]; 72 hr): 7.1%
- % S phase ([2]; 72 hr): 3.0%
- % subG1 ([2]; 72 hr): 55.3%
- cell killing (outer cell membrane damage, loss of mitochondrial membrane potential) (Eμ-myc lymphomas; 24-h dose-response assay): could effectively kill
- concentration of HDACi required to kill ˜70% of Eμ-myc lymphomas following 24-h treatment (Eμ-myc lymphomas; 24-h treatment): 3.0 nmol/L and 3 nmol/L
- cell killing (outer cell membrane damage, loss of mitochondrial membrane potential) (Eμ-myc/Bcl-2 lymphomas): but not Eμ-myc/Bcl-2 lymphomas
- cell killing in time course ([3]; 3.0 nmol/L, up to 72 h): could kill
- DNA fragmentation (sub-G1) indicative of apoptosis ([3]; over 3 days, data not shown): increase in the percentage of cells showing DNA fragmentation
- plasma membrane integrity and mitochondrial function (4242Eμ-myc lymphomas; [7]): dose-dependent loss of plasma membrane integrity and mitochondrial function
- cell cycle analysis: DNA fragmentation (4242Eμ-myc lymphomas; increasing doses): DNA fragmentation occurred
- cell killing in time course (4242Eμ-myc lymphomas; parental Eμ-myc lymphomas, within the first 24 h, 3 nmol/L romidepsin or 0.1 μmol/L oxamflatin): effectively killed
- plasma membrane integrity and mitochondrial function [4, 7]: unaffected
- cell cycle analysis ([4]; increasing doses): arrested in the G1 phase
- histone acetylation ([5]; 226Eμ-myc/Bcl-2 lymphomas): equivalent increase in histone acetylation
- acetylation of histones H3 and H4 ([5]; 4242Eμ-myc lymphomas, 3.0 nmol/L romidepsin, 0.1 mmol/L oxamflatin, 24-h time course): induced equivalent acetylation of histones H3 and H4
- histone acetylation ([5]; 4242Eμ-myc/Bcl-2 lymphomas): equivalent increase in histone acetylation
- maximum tolerated dose [6]: 5.6 mg/kg
